Experimental data published in US11576913B2 (priority 2018, dated 2023).

Tests used:
[1] = triazolam tablets administered orally; cited from earlier work
[2] = test system: healthy, non-dependent, recreational sedative users; assay: Human abuse potential study, Drug Liking VAS; type: in vivo; settings: for Drug Liking VAS - EMAX LSMean: N = 50, 100 point bipolar scale; for Drug liking from placebo, Triazolam 1 mg compared with Triazolam 0.5 mg (words): 1 mg vs 0.5 mg
Procedure: This study was designed as a randomized, single-dose, double-blinded, double dummy, crossover study. The study population was healthy, nondependent recreational polydrug users with a history of Central Nervous System (CNS) depressant use.
Subjects were screened no more than 28 days before check-in of period 1. Study drug was administered in each period according to the study randomization schedule. During Qualification, there was a minimum 24 hour washout period between each study drug administration. During the Treatment phase, there was a minimum 48-hour washout period between each study drug administration. Subjects were confined to the unit the day prior to, and for at least approximately 24 hours following, study drug administration during each period. If subjects were discharged between treatment periods, subjects returned to the unit the day prior to dosing.
The Qualification Phase was designed to ensure that polydrug abusing subjects with self-reported recreational CNS depressant/sedative drug experience were able to tolerate and discriminate between orally administered triazolam tablets and placebo as well as to report positive subjective effects of the drug in a controlled laboratory setting. This phase was also used to exclude “placebo responders”, i.e., subjects who report subjective effects of placebo. This phase also helped familiarize subjects with, and trained them in the use of, various scales and questionnaires that measure subjective effects.
The comparators in an abuse potential study are typically controlled substances from the same pharmacologic class as the investigational drug. However, Compound (1C) is a novel drug class for which no controlled substances/drugs of abuse are available for comparison. […] There was no evidence of other effects of interest to abusers, such as perceptual disturbances or stimulation. […] Placebo control was used to establish the frequency and magnitude of changes in clinical endpoints that may occur in the absence of active treatment as well as to minimize subject and investigator bias.
In all of the study phases, treatments were blinded to the greatest extent possible to reduce potential bias during data collection and evaluation of clinical endpoints. Because study subjects were recreational drug users and familiar with the effects of the drug substances being studied, the double-dummy technique was be used in the Treatment Phase to maintain blinding. Subjects received tablets orally in each treatment period. Placebo was matched in size and shape to each of the tablet types, and a method to blind subjects will be employed.
For each phase, subjects received treatments according to the randomization schema. During the Treatment Phase, subjects were be randomized to 1 of sequences in a 6×6 Williams square crossover design.
Compound (1C) was administered orally in an immediate release tablet comprising the pharmaceutically acceptable excipients croscarmellose sodium (FMC Health and Nutrition, Philadelphia, Pa.), hydroxypropylcellulose (Ashland Inc., Covington, Ky.), microcrystalline cellulose (Dupont, Chicago, Ill.), mannitol (SPI Pharma, Wilmington, Del.), magnesium stearate (PlusPharma Inc., Vista, Calif.), and sodium lauryl sulfate (BASF Corp, Upper St. Clair, Pa.). […] Placebo tablets matching the Compound (1C) tablets were orally administered in the same way. The placebo tablets comprised the above-described pharmaceutically acceptable excipients but with no Compound (1C). Triazolam was administered at a dose of 0.5 or 1 mg. Trial endpoints are provided below.
Peak Maximum Effect (Emax) for Drug Liking (“at this moment”) visual analog scale (“VAS”), was measured by study participants providing a score on a 100 point bipolar scale with 100 as strong liking, 50 as the neutral point of neither liking nor disliking, and 0 as strong disliking. […]

[3] = test system: healthy, non-dependent, recreational sedative users; assay: Human abuse potential study, adverse events and tolerability; type: in vivo; settings: N = 50
Procedure: Adverse events were coded to MedDRA terms. Data for AEs were analyzed using the treatment-emergent signs and symptoms (TESS) philosophy. Treatment-emergent signs and symptoms are defined as AEs that: • Emerge during treatment, having been absent at pretreatment; or • Reemerge during treatment, having been present at pretreatment but stopped prior to treatment; or • Worsen in intensity during treatment relative to the pretreatment state, when the AE is continuous.
Subjects were counted only once in the incidence count for a specific MedDRA Preferred Term, although a MedDRA Preferred Term might be reported more than once for a particular subject. Separate summaries will be provided for Treatment-emergent AEs (“TEAEs”) by maximum intensity (mild, moderate, severe) and relationship (yes, no) to study drug. A TEAE was considered related to study drug if the investigator reported the event to be “definitely, probably, possibly, or unlikely” related to treatment on the CRF.

In the case of Cc1nnc2n1-c1ccc(Cl)cc1C(c1ccccc1Cl)=NC2 [Triazolam, triazolam, reference compound], the “Time to maximum concentration” value [1] is listed as ~1.3 h, the “Drug Liking VAS - EMAX Diff from Placebo LSMean” value ([2]; 0.5 mg) is listed as 20.4 points and the “Drug liking compared with placebo (words)” value ([2]; 0.5 mg) is listed as “significant”. For the same molecule, the “Drug Liking VAS - EMAX LSMean” value ([2]; 0.5 mg single oral dose) was 75.5, the “Drug liking compared with placebo (words)” value ([2]; 0.5 mg, listed as triazolam) was “significantly greater than placebo” and the “Drug Liking VAS - EMAX Diff from Placebo LSMean” value ([2]; 1 mg) was 23.5 points. The “Drug liking compared with placebo (words)” value ([2]; 1 mg) was “significant”, the “Drug Liking VAS - EMAX LSMean” value ([2]; 1 mg single oral dose) was 78.6 and the “Drug liking from placebo, Triazolam 1 mg compared with Triazolam 0.5 mg (words)” value [2] was “Triazolam 1 mg had greater drug liking from”. The “Drug liking from placebo, Triazolam 1 mg compared with Triazolam 0.5 mg (words)” value ([2]; listed as triazolam) was “greater drug liking from placebo than triazolam 0.5 mg”, the “Drug liking compared with placebo (words)” value ([2]; 1 mg, listed as triazolam) was “significantly greater than placebo” and the Amnesia ([3]; 0.5 mg) was 3 (6) n (%). For the same molecule, the Ataxia ([3]; 0.5 mg) was 21 (42) n (%), the Diplopia ([3]; 0.5 mg) was 4 (8) n (%) and the Dizziness ([3]; 0.5 mg) was 7 (14) n (%). The Euphoric mood ([3]; 0.5 mg) was 1 (2) n (%), the Headache ([3]; 0.5 mg) was 2 (4) n (%) and the Hiccups ([3]; 0.5 mg) was 10 (20) n (%). The Nausea ([3]; 0.5 mg) was 0 n (%), the Somnolence ([3]; 0.5 mg) was 45 (90) n (%) and the Vision blurred ([3]; 0.5 mg) was 3 (6) n (%). The Amnesia ([3]; 1 mg) was 12 (24) n (%), the Ataxia ([3]; 1 mg) was 28 (56) n (%) and the Diplopia ([3]; 1 mg) was 5 (10) n (%). For the same molecule, the Dizziness ([3]; 1 mg) was 6 (12) n (%), the Euphoric mood ([3]; 1 mg) was 2 (4) n (%) and the Headache ([3]; 1 mg) was 0 n (%). The Hiccups ([3]; 1 mg) was 14 (28) n (%), the Nausea ([3]; 1 mg) was 1 (2) n (%) and the Somnolence ([3]; 1 mg) was 49 (98) n (%). The Vision blurred ([3]; 1 mg) was 2 (4) n (%).
